The structures appear in SMILES notation. “Also recorded” adds a separate entry of the source. Like-named read-outs stand apart in the source and are kept apart here.

The test system of data set [1] is macrophage. Briefly: macrophage cell viability. In kind it is cell-based.
A short description of data set [2]: inflammation in vivo.
Data set [3] concerns macrophages. Nature of the data set: IL-10 secretion from macrophages in vitro. In kind it is cell-based.
The subject of data set [4] is NF-kB. Briefly: NF-kB reporter assay in THP1-Blue cells. Conditions: LPS-induced inflammation. In kind it is cell-based, human.
The nature of data set [5]: stability after incubation at 37° C. in buffer at physiological pHs (UPLC-MS). In kind it is physicochemical.
Data set [6] in a line: in vivo. To be noted: mouse, 1 mg.
Data set [7] deals with NCI-H716 cells. Briefly: intracellular calcium levels in NCI-H716 cells. In kind it is cell-based, human. To be noted: NCI-H716 (L-cells). (In general: Calcium flux is commonly read through the fluorescence of an indicator in the cells.)
Data set [8] deals with DIO mice. Nature of the data set: acute treatment of DIO mice via duodenal and rectal catheters: GLP-1 and blood glucose. In kind it is in vivo, mouse. Conditions: HFD-fed (DIO) mice, 1 mg CA7S vs PBS, within 15 min.
Data set [9] relates to Caco-2 cells. Nature of the data set: cell viability of Caco-2 cells. In kind it is cell-based, human. Conditions: concentrations up to 3 mM.
In data set [10] the test system is NCI-H716 cells. Briefly: GLP-1 secretion in NCI-H716 cells in vitro. In kind it is cell-based, human. Conditions: for GLP-1 secretion in vitro by CA7S extracted from cecal contents of SG mice: purified CA7S 500 μM vs DMSO. An excerpt: TGR5 agonism also results in elevated intracellular calcium levels^19.
Data set [11] relates to SULT2A1. Briefly: SULT2A1 expression in HepG2 cells (qRT-PCR). In kind it is cell-based. To be noted: normalized to human GAPDH.
For data set [12], the target named is T1, TGR5 (Homo sapiens, UniProt Q8TDU6).
T1 sequence (Q8TDU6 1-330): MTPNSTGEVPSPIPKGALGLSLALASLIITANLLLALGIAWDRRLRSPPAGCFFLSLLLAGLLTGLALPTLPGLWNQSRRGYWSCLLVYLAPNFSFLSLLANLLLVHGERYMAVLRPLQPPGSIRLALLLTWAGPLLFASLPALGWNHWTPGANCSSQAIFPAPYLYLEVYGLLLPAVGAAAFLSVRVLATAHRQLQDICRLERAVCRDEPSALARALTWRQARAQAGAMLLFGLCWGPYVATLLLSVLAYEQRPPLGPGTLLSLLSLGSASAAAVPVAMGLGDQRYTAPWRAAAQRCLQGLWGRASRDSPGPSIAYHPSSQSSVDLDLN
Nature of the data set: relative TGR5 expression (FIG. 40). In kind it is cell-based. From the text: FIG. 40B-D show the relative TGR5 expression of the various compounds.

The test system of data set [13] is GF mice. Briefly: GF mice administered 0.3% LCA (w/w) in chow for 1 week. In kind it is in vivo, mouse. To be noted: 0.3% LCA in chow.
For data set [14], the system named is ASBT. Nature of the data set: ASBT expression in Caco-2 cells. In kind it is cell-based, human. Further details: dose or concentration left out as unconfirmed. To be noted: LCA.
For data set [15], the system named is DIO mice. Nature of the data set: portal vein injection of LCA in DIO mice. In kind it is in vivo, mouse. Conditions: LCA 50 μM into portal vein.
The mark [16] stands for this setting: HFD-fed mice, acute cholic acid 7-sulfate treatment.
Where [17] appears, read: listed as Cholic acid 7-sulfate.
Setting [18] is: listed as cholic acid 7-sulfate.

For `C[C@H](CCC(=O)O)[C@H]1CC[C@H]2[C@@H]3[C@H](OS(=O)(=O)O)C[C@@H]4C[C@H](O)CC[C@]4(C)[C@H]3C[C@H](O)[C@]12C` [CA7S, cholic acid 7-sulfate], in [1], the macrophage cell viability entry was “does not affect macrophage cell viability”. Further, the “Cholic acid 7-sulfate concentration (mean ± SEM), Cecum” value under setting [16] came to 2577 ± 185.3 pmol/mg. Besides, under setting [16], the “Cholic acid 7-sulfate concentration (mean ± SEM), Hepatic portal vein” value is on record as 6.128 ± 2.111 pmol/mg. In addition, the “CA7S in cecal contents” value (administration of 1 mg, on average) was 2500 pmol/mg wet mass. Moreover, the “leak into systemic circulation and portal vein (gut restriction)” value (ectopic introduction in mice, listed as cholic acid 7-sulfate) is recorded as “only minor amounts”. The inflammation in vivo result in data set [2] was “improves inflammation in vivo”. For the same compound, in data set [3], the IL-10 secretion result was “induces secretion of the anti-inflammatory cytokine IL-10”. Also, the NFkB activation result in data set [4] is “reduces NFkB activation”. The “stability at physiological pHs” value is “stable at physiological pHs” in data set [5] and “stable in a wide range of pHs” in data set [5] (setting [17]). In addition, the concentration at 15 min is 0.495 ± 0.167 µM in [6] (Cholic acid 7-sulfate concentration (mean ± SEM), Blood, HFD-fed mice, acute cholic acid 7-sulfate treatment) and roughly 2500 µM in [6] (cholic acid 7-sulfate in the cecum, dosing with 1 mg). Moreover, the figures for the intracellular calcium levels entry in data set [7] and in [7] (setting [17]) were “dose-dependent increase in calcium levels” and “increased calcium levels”, respectively. In addition, the blood glucose levels result in data set [8] is on record as “reduced blood glucose levels”. For the same compound, the “systemic GLP-1 levels” value was “increased systemic GLP-1 levels” in data set [8] and “induced GLP-1 levels” in data set [8] (setting [18]). Besides, the figures for the “toxicity / viability of intestinal Caco-2 cells” value in [9] and in data set [9] (setting [17]) were “does not affect the viability” and “no toxicity”, respectively. In addition, the “GLP-1 secretion in vitro” value is recorded as “induced GLP-1 secretion to a similar degree as TDCA in a dose-dependent manner” in data set [10] and “induces GLP-1 secretion in vitro better than the known GLP-1 inducer TDCA” in data set [10] (setting [17]). For the same compound, the “GLP-1 secretion in vitro by CA7S extracted from cecal contents of SG mice” value in [10] is “induced GLP-1 secretion in vitro”; in data set [10] (setting [18]), “exhibit activity inducing GLP-1 secretion in vitro”.
In the case of `C[C@H](CCC(=O)O)[C@H]1CC[C@H]2[C@@H]3[C@H](O)C[C@@H]4C[C@H](O)CC[C@]4(C)[C@H]3C[C@H](O)[C@]12C` [CA, cholic acid, reference compound], the SULT2A1 expression entry in data set [11] is recorded as “did not induce SULT2A1 expression at all concentrations tested”. In addition, the entries for the “GLP-1 secretion in vitro” value in [10] and in [10] (listed as cholic acid) were “had no effect on GLP-1 secretion” and “had no effect”, respectively.
Regarding `C[C@H](CCC(=O)O)[C@H]1CC[C@H]2[C@@H]3[C@H](O)C[C@@H]4C[C@H](O)CC[C@]4(C)[C@H]3CC[C@]12C` [CDCA, chenodeoxycholic acid], the SULT2A1 expression entry in data set [11] is “did not induce SULT2A1 expression at all concentrations tested”.
On to `COC(=O)CC[C@@H](C)[C@H]1CC[C@H]2[C@@H]3[C@H](NS(=O)(=O)O)[C@@H](O[Si](C)(C)C(C)(C)C)[C@@H]4C[C@H](O[Si](C)(C)C(C)(C)C)CC[C@]4(C)[C@H]3CC[C@]12C` [Compound 3-8], for which the TGR5 expression entry in [12] was “induces TGR5 expression”.
Turning to `C[C@H](CCC(=O)O)[C@H]1CC[C@H]2[C@@H]3[C@H](OP(=O)(O)O)C[C@@H]4C[C@H](O)CC[C@]4(C)[C@H]3C[C@H](O)[C@]12C` [Compound 9, cholic acid-7-phosphate], in data set [12], the TGR5 expression result is given as “induces TGR5 expression”.
As for `COC(=O)CC[C@@H](C)[C@H]1CC[C@H]2[C@@H]3[C@H](OP(=O)(OCc4ccccc4)OCc4ccccc4)C[C@@H]4C[C@H](O[Si](C)(C)C(C)(C)C)CC[C@]4(C)[C@H]3CC[C@]12C` [Compound 9-2], the TGR5 expression entry in [12] is listed as “induces TGR5 expression”.
On to `C[C@H](CCC(=O)O)[C@H]1CC[C@H]2[C@@H]3CC[C@@H]4C[C@H](O)CC[C@]4(C)[C@H]3CC[C@]12C` [LCA, 3α-hydroxy-5β-cholan-24-oic acid], for which, in data set [13], the “Asbt expression in SI and DI” value was “inhibited expression of Asbt in SI and DI”; the “VDR expression in liver” value is “increased expression”; the “mSult2A1 expression in liver” value is listed as “increased expression”. Moreover, the “LCA levels in intestine after feeding” value in data set [13] (1 week) was “accumulation of LCA in the proximal small intestine (SI), distal ileum (DI), and cecum”. For the same compound, in [13] (gallbladder and distal ileum), the “CA7S production and accumulation” value was “induced CA7S production and accumulation in the gallbladder (GB) and the DI”. In addition, in data set [14], the ASBT expression result is on record as “inhibited expression of ASBT”. Besides, the SULT2A1 expression result in [11] is listed as “induced SULT2A1; also recorded: could induce SULT2A1 expression in a dose dependent manner”. The “CA7S levels in the gallbladder” value in data set [15] was “increase in CA7S levels in the gallbladder”. Moreover, in [15] (two hours after injection), the “SULT2A1 expression level in mouse liver” value was “significant increase” and the “VDR expression level in mouse liver” value is reported as “significant increase”.
On to `C[C@H](CCC(=O)NCCS(=O)(=O)O)[C@H]1CC[C@H]2[C@@H]3CC[C@@H]4C[C@H](O)CC[C@]4(C)[C@H]3C[C@H](O)[C@]12C` [TCDCA, taurodeoxycholic acid], for which the SULT2A1 expression result in [11] is listed as “did not induce SULT2A1 expression at all concentrations tested”.

Source of the values: patent US20230174988A1, “METHODS FOR INDUCING BILE ACID SULFOTRANSFERASE SULT2A FOR TREATING METABOLIC DISORDERS” (priority 2020, published 2023).
